# Laboratory results published in BindingDB's records for doi:10.1021/jm00129a004 (Bristol Myers Squibb, 1989).
# Biological target: HMG-CoA reductase (Rattus norvegicus)
# Assay: In vitro inhibition of rat liver microsomal HMG-CoA reductase activity
row,IC50 [µM],Compound
1,0.019,Cn1nnnc1C(/C=C/[C@H]1C[C@H](O)CC(=O)O1)=C(c1ccc(F)cc1)c1ccc(F)cc1
2,0.043,"Cn1nnnc1C(/C=C/[C@@H]1C[C@@H](O)CC(=O)O1)=C(c1ccc(F)cc1)c1ccc(F)cc1 [6-[4,4-Bis-(4-fluoro-phenyl)-3-(1-methyl-1H-tetrazol-5-yl)-buta-1,3-dienyl]-4-hydroxy-tetrahydro-pyran-2-one (BMY 22089)]"
